Measurements reported in US20060166996A1, “Phthalazine derivatives as phosphodiesterase 4 inhibitors” (Zambon Group S.P.A., priority 2002, published 2006).

Assays:
[1] = molecular target: PDE 3 (Homo sapiens, UniProt Q14432); assay: PDE 3 enzyme inhibition (SPA); type: biochemical, healthy volunteers; settings: PDE 3 from platelet rich plasma; 3H-cAMP; read-out: PDE 3-5 IC 50 (nM): PDE 3
Procedure: (§1) PDE 3 and PDE 5 enzymes were purified from platelet rich plasma (PRP) obtained from healthy volunteers.
(§2) PDE 3 and PDE 5 enzymes were purified according to Simpson A. W. M. et al. (Biochem. Pharmacol. 1988, 37, 2315-2320) partially modified for the FPLC technique (Fast Protein Liquid Chromatography).
(§3) The PRP was diluted 1:2 in saline solution and centrifuged at 2000×g for 15 minutes at room temperature.
(§4) The pellet was suspended in 10 ml of lysis solution (155 mM NH4Cl, 10 mM KHCO3 and 0.1 mM Na2EDTA pH 7.4) and incubated for 10 minutes on ice-bath to remove erythrocyte contamination.
(§5) After centrifugation, platelets were suspended in 10 ml of 20 mM Bis-Tris, 2 mM EDTA, 5 mM β-mercaptoethanol, 50 mM sodium acetate, 2 mM benzamidine) and homogenised with a Polytron homogeniser on ice-bath.
(§6) The homogenate was centrifuged and the supernatant applied to a UNO Q12 column connected to a Biologic Chromatography system (FPLC, BIO RAD).
(§7) PDE 3 and PDE 5 enzymes were eluted with a linear 0.05-1M sodium acetate gradient and the elution fractions were collected for PDE enzymes activity assay.
(§8) Fractions containing PDE activities were pooled, dialysed overnight against distilled water and concentrated 10 times by an Amicon filtration system (using YM10 membrane filter). Ethylene glycol was added to a final concentration of 30% v/v and the solution stored at −20° C.
(§9) Enzymatic activity was stable for several weeks under these conditions.
(§10) Enzymes activity assay were performed using Scintillation Proximity Assay (SPA) Amersham kit consisting of tracer ^3H-cAMP for PDE3 or ^3H-cGMP for PDE5, PDE assay buffer (10×solution: 500 mM TRIS/HCl pH 7.5, 83 mM MgCl2 and 17 mM EGTA) and Yttrium SPA PDE beads (containing 18 mM zinc sulphate).
(§11) The radioactivity of the beads was measured using a scintillation counter (Packard model MINAXI β TRI-CARB 4000 SERIES).

[2] = molecular target: T1, PDE 1 (Bos taurus, UniProt P14100); assay: PDE 1 enzyme inhibition (SPA); type: biochemical; settings: PDE 1 from bovine heart (Sigma P0520); read-out: PDE 1 IC 50
T1 construct: partially purified from bovine heart; purchased Sigma P0520; host or cells: bovine heart
T1 sequence (P14100 1-514 isoform P14100-2): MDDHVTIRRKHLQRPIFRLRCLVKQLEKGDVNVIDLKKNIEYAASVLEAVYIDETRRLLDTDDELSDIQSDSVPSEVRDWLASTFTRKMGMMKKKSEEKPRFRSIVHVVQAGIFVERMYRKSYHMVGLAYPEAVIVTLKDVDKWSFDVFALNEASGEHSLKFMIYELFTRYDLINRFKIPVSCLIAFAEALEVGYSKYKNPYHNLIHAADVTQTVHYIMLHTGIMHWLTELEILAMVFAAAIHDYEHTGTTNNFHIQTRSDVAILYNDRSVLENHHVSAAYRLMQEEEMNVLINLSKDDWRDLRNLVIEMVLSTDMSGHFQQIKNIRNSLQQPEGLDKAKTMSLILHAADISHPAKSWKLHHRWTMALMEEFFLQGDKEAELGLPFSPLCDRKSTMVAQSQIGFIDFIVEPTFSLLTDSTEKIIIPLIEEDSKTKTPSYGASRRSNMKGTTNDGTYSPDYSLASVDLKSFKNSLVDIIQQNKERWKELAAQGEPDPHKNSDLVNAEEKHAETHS
Procedure: Lyophilised PDE 1 enzyme, partially purified from bovine heart, was purchased from Sigma (P0520).
The enzyme consists of the PI fraction reported by Ho et al. (Biochim Biophys Acta, 1976, vol. 429(2), 461-473).
The lyophilised enzyme was reconstituted with 30% v/v ethylene glycol at a concentration of 500 µg/ml and stored at −20° C.
PDE 1 activity was determined using the Scintillation Proximity Assay (SPA) Amersham kit consisting of tracer ^3H-cAMP, PDE assay buffer (10×solution: 500 mM TRIS/HCl pH 7.5, 83 mM MgCl2 and 17 mM EGTA) and Yttrium SPA PDE beads (containing 18 mM zinc sulphate).
as §11

[3] = molecular target: PDE 5 (Homo sapiens, UniProt O76074); assay: PDE 5 enzyme inhibition (SPA); type: biochemical, healthy volunteers; settings: PDE 5 from platelet rich plasma; 3H-cGMP; read-out: PDE 3-5 IC 50 (nM): PDE 5
Procedure: as §1, §2, §3, §4, §5, §6, §7, §8, §9, §10, §11

[4] = molecular target: T2, PDE 4 enzyme; assay: PDE 4 enzyme inhibition (SPA); type: biochemical; settings: PDE 4 isolated from U937 cell line; SPA with 3H-cAMP
T2 construct: % at 10^−7; other: at 10^−7; PDE 4 from U937 cell line; other: PDE 4 isolated from U937 cell line; SPA with 3H-cAMP
Procedure: a) PDE 4 Enzyme Purification
PDE 4 enzyme was isolated from U937 cell line according to the method of Nielson et al. (J. Allergy Clin. Immunol. 1990, vol. 86, pages 801-807) partially modified for the FPLC technique (Fast Protein Liquid Chromatography).
U-937cell line (Istituto Zooprofilattico Sperimentale, Brescia, Italy) was maintained in RPMI 1640, with 10% foetal calf serum and 2 mM glutamine, at a cell density between 1×10^6 and 8×10^6 cells per ml in an incubator at 37° C. with 5% CO2.
U937 suspension was homogenised in a buffer containing 10 mM TRIS (tri-(hydroxymethyl)-aminomethane), 5 mM MgCl2, 4 mM EGTA (ethyleneglycol-bis-(β-aminoethylether)-N,N,N′N′-tetra-acetic acid), 5 mM […]-mercaptoethanol, 1 μM leupeptin, 1 μM pepstatin, 1% TRITON x-100, and 100 μM phenylmethyl sulfonyl fluoride (PMSF) at pH 7.8.
The homogenate was centrifuged and the supernatant was used for the purification of the PDE 4 enzyme; it was seeded on a column connected to a biologic chromatography system (FPLC, BIO RAD).
PDE 4 enzyme was eluted with a linear gradient, from 0.05 M to 1 M of sodium acetate, and elution fractions were collected for PDE4 activity assay.
The fractions containing PDE4 activity were collected and, after an overnight dialysis against water to remove sodium acetate, were concentrated to 30% volume with an Amicon filtration system (using YM10 membrane filter).
Ethylene glycol (30% v/v) was added and the sample was stored at −20° C. in a single aliquot until the use.
PDE 4 activity assay was performed using Scintillation Proximity Assay (SPA) Amershan kit consisting of tracer ^3H-cAMP, PDE assay buffer (10×solution: 500 mM TRIS/HCl pH 7.5, 83 mM MgCl2 and 17 mM EGTA) and Yttrium SPA PDE beads (containing 18 mM zinc sulphate).
as §11
The IC50 values were calculated from concentration-inhibition curves by non linear regression analysis using the program ORIGIN 3.5 (MICROCAL SOFTWARE INC.) and each fitting was the mean±SEM of 3 experiments using different PDE 4 preparations.

[5] = Pharmacokinetic study in rats; type: in vivo; settings: for PK rat t/2: 10 mg/kg oral or 3 mg/kg intravenously, mixture of 3-5 compounds; for bioavailability: plasma, rat, oral 10 mg/kg in N-methylglucosamine/PG/Tween 80 (physiologic vehicle), read-out: PK rat % F
Procedure: A mixture containing 3-5 compounds according to what described by Ward K. W. et al. (Drug Metab. Dispos. 2001, vol. 29, 82-88) was administered to rats at 10 mg/kg dosage by oral route (1 mg/ml in 77% N-methylglucosamine 25 mM and 20% PG containing 3% Tween 80) or 3 mg/kg intravenously (3 mg/ml in 15% DMSO/85% PEG).
The animals received only one treatment per study.
The rats permanently implanted with jugular catheter (Silastic®, Dow Corning) were treated with the test mixture by an intravenous bolus (via implanted catheter) or by oral gavage. Blood samples were collected from the jugular catheter at different times up to 6 h after administration.
Plasma samples were analyzed after protein precipitation by two volumes of CH3CN and plasma concentrations were determined by liquid chromatography/mass spectrometry.
Being poor the solubility of the compounds comprised in the general formula of the international patent application WO 00/05218, it was necessary to performe the pharmacokinetic studies using a 15% DMSO/85% PEG solution of the compounds both for intravenous and for oral route, i.e. by an absolutely non physiological vehicle.

PDE 3, sequence (Q14432 674-1093 limits assumed): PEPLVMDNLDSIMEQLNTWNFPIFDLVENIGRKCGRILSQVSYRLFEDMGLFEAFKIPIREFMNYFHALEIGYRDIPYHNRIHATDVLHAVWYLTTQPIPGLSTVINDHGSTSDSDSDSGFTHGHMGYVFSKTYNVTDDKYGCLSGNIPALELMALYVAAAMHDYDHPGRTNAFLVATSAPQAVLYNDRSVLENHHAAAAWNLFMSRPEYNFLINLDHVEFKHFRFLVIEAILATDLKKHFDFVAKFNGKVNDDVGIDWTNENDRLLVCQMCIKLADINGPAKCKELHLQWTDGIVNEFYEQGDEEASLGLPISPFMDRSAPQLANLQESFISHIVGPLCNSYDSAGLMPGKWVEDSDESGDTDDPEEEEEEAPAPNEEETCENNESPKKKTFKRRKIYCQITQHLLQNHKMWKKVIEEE

Row | IC50 [1] [nM] | IC50 [2] [µM] | IC50 [3] [nM] | IC50 [4] [µM] | PK rat t/2 [5] [min] | bioavailability [5] [%] | SMILES
1 | > 10000 | > 10 | > 10000 | 0.037 | 132 | 43 | COc1ccc2c(Cc3c(Cl)cncc3Cl)nnc(-c3cccc(C(=O)O)c3)c2c1 [Compound 2, 3-[4-(3,5-dichloro-pyridin-4-ylmethyl)-7-methoxy-phthalazin-1-yl]-benzoic Acid]
2 | > 10000 | > 10 | > 10000 |  | 66 | 41 | O=C(O)c1cccc(-c2nnc(Cc3c(Cl)cncc3Cl)c3ccc(OC(F)F)cc23)c1 [Compound 8, 3-[4-(3,5-dichloro-pyridin-4-ylmethyl)-7-difluoromethoxy-phthalazin-1-yl]-benzoic Acid]
3 | > 10000 | > 10 | > 10000 | 0.048 | 21 | 7 | COc1ccc2c(Cc3c(Cl)cncc3Cl)nnc(-c3sccc3C(=O)O)c2c1 [Compound 10, 2-[4-(3,5-dichloro-pyridin-4-ylmethyl)-7-methoxy-phthalazin-1-yl]-thiophene-3-carboxylic Acid]
